In patent US11378572B2, “Therapeutic agent for immune cell migration-caused disease and method for screening same” (ZYMEDI CO., LTD., priority 2017, dated 2022):

Experiments:
RAW 264.7 cells = assay: Transwell migration assay of monocytes/macrophages; assay type: cell-based
Experimental: Among several extracellular matrix (ECM), it was examined which ECM promotes the migration and infiltration of immune cells, typically monocytes/macrophages. A transwell migration assay was performed using collagen (Col), fibronectin (FN) and laminin (LN) as extracellular matrices, and detailed methods were as follows. Transwells (Corning, #3421-5 mm) were coated with gelatin (0.5 mg/ml) and RAW 264.7 cells (1×10^5 cells/well) were seeded into the top chambers. Serum free DMEM (500 μl) containing 10 μg/ml of laminin (laminin mixture, Biolamina), fibronectin or collagen, respectively, was placed in the bottom chambers. After 24 hours, cells were fixed with 70% methanol for 30 minutes and stained with 50% hematoxylin for 30 minutes. After removing non-migrating cells from the top of the membrane with a cotton swab, the membrane was taken and mounted on the slide. Migrating cells on the underside of the membrane were observed and quantified under a high magnification microscope.
Effect of laminin subtypes on the immune cell migration and infiltration was evaluated. A transwell migration assay was performed in the same manner as in Example 1 using LN111, LN211, LN221, LN411, LN421, LN511, and LN521 as various laminin subtype proteins (purchased from Biolamina). Specific sequences of laminin subtypes are referred to α4 chain of SEQ ID NO:4, α2 chain of SEQ ID NO: 10, α5 chain of SEQ ID NO: 11, β2 chain of SEQ ID NO:6, β1 chain of SEQ ID NO: 12, γ1 chain of SEQ ID NO: 8. according to the chain forming each laminin subtype,
For each of the transformed macrophages, a transwell migration assay was performed in the same manner as in Example 1 using 1 μg/ml of laminin 421.
Thus identified agents as inhibiting the translocation of KRS to the plasma membrane was added to the LN421-treated macrophages to perform a transwell migration assay. […] Migrating cells on the underside of the membrane were observed and quantified under a high magnification microscope. […]

PAH model = assay: Monocrotaline PAH model, anti-KRS antibody; assay type: in vivo, SD rats
From the text: To induce PAH in 7-week-old SD rats (Orient bio), 60 mpk of MCT (monocrotaline) was subcutaneously injected. Then rats were divided into 4 groups (5 animals in each group), and administered with either of 1 mpk of mock human IgG (Thermo Fisher Scientific, negative control), 1 mpk or 10 mpk of anti-KRS antibody (N3 antibody), 25 mpk of sildenafil (positive control) for 3 weeks. All antibodies were intravenously injected twice a week and sildenafil was orally administered everyday.
Three weeks later, rats were anesthetized with isoflurane, and blood flow and pressure were measured using an MPVS cardiovascular pressure and volume system (model name: MPVS Ultra, manufactured by Millar Instruments). Right ventricular systolic pressure (RVESP) and diastolic pressure, left ventricular systolic pressure and diastolic pressure were measured using a dedicated catheter (Mikro-Tip rat pressure catheter, manufactured by Millar Instruments). Cardiac output was measured using a perivascular blood flow probe (Transonic® Flowprobes, manufactured by […]), and experimental techniques were performed in the same manner as described in the literature: Pacher P, Nagayama T, Mukhopadhyay P, Batkai S, Kass D A. Measurement of cardiac function using pressure-volume conductance catheter technique in mice and rats. Nat Protoc 2008, 3(9):1422-34.
Collected lungs were fixed in PFA (paraformaldehyde) according to a conventional procedure, and then embedded in paraffin through water washing, dehydration, and tissue clearing processes. Lung tissue paraffin blocks of rats were cut to a thickness of […] and slides were prepared. Thereafter, staining was performed as follows. First, slides were treated with xylene 3 times for 5 minutes, followed by treatments with 100% ethanol, 95% ethanol, 90% ethanol, 70% ethanol, DW for 2 minutes in this order and washed with PBS for 5 minutes. After treatment with 0.3% H2O2, slides were washed twice with PBS for 5 minutes. After soaking in 0.01M citrate buffer and heating, slides were washed with PBS-T (0.03% tween 20). After 30 minutes blocking at room temperature (2% BSA & 2% goat serum in PBS), tissues were stained with anti-CD68 antibody (1:200, ED1 clone, Abcam) overnight at 4° C. After washing three times with PBS-T for 5 minutes, tissues were treated with polymer-HRP anti-mouse envision kit (DAKO) for 1 hour at 4° C. After washing three times with PBS-T, color was developed by treatment with DAB substrate buffer and DAB chromogen 20. Thus stained tissues were treated with Mayer's hematoxylin (Sigma) for 1 minute, and then treated twice for 2 minutes in the order of 70% ethanol, 90% ethanol, 95% ethanol, and 100% ethanol. Finally, xylene was treated three times for 5 minutes and observed with an optical microscope.

KRS = target: T1, KRS (Mus musculus, UniProt Q99MN1); assay: KRS level in plasma membrane/cytosol fractions by western blot (KRS translocation to the plasma membrane); assay type: cell-based; settings: RAW 264.7 cells, LN421 l g/ml, 0, 12, 24 hour
T1 construct: KRS, which is expressed in monocytes/macrophages and usually present in the cytoplasmic domain, translocates to the plasma membrane by LN421 treatment; endogenous in cells; host or cells: RAW 264.7
Experimental: After dispensing RAW 264.7 cells (2×10^6 cells) in 100 mm dish and incubating for 18 hours, cells were treated with LN421 l g/ml in serum free DMEM media and harvested at 0 hour, 12 hour, 24 hour. Proteins of RAW 264.7 cells were separated into the cytosol and membrane fractions using ProteoExtract Subcellular Proteome Extraction Kit (Calbiotech, cat #539790). Obtained proteins were electrophoresed and transferred to PVDF membrane (Milipore) and blocked with 3% skim milk. KRS was then detected by western blot. Specifically, KRS polyclonal antibody (rabbit, Neomics, Co. Ltd. #NMS-01-0005) was added and reacted for 1 hour. Unbound antibody was removed and the membrane was added and reacted with anti-rabbit secondary antibody (ThermoFisher Scientific, #31460). After reacting with the secondary antibody, films were exposed in the dark room using ECL reagent as a substrate. […]
First, in order to determine whether various KRS inhibitor candidates could exert inhibitory effect on the KRS translocation to the plasma membrane, RAW 264.7 cells (2×10^6 cells) were dispensed in 100 mm dishes and incubated for 18 hours, followed by treatment with laminin 421 1 μg/ml in serum free DMEM, and 100 nM of each of various KRS inhibitor candidates, and cells were further incubated for 12 hours. […] Afterwards, KRS was detected by western blot, and the specific method were as described in Example 3. […]

[1] = MCT + sildenafil 25 mpk oral everyday, 3 weeks (n = 5)

T1 sequence (Q99MN1 whole entry, the tested form may be a part): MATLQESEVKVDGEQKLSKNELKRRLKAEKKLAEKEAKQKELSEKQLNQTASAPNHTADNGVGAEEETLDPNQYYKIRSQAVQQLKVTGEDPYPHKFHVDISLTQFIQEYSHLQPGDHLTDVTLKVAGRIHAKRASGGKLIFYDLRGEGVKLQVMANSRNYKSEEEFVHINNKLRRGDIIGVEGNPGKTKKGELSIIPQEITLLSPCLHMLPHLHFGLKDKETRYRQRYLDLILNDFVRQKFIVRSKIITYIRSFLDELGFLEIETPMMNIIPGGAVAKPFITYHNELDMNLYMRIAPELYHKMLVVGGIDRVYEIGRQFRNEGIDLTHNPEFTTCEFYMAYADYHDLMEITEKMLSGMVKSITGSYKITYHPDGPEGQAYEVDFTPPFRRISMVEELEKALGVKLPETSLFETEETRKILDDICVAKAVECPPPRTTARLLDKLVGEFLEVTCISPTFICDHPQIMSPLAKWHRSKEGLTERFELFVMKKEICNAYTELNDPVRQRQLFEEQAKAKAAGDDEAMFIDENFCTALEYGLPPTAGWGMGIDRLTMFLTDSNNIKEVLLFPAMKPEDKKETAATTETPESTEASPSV

In the case of laminin [reference compound], the “migration of monocytes/macrophages among extracellular matrices” value (RAW 264.7 cells; 10 μg/ml in bottom chamber, 24 hours, versus collagen, fibronectin) is reported as “most strongly promoted”.
`CCCc1nn(C)c2c(=O)[nH]c(-c3cc(S(=O)(=O)N4CCN(C)CC4)ccc3OCC)nc12` [sildenafil] was tested, and the CO (PAH model; MCT + sildenafil 25 mpk oral everyday, 3 weeks (n = 4)) was 49.6 ± 17.7 mL/min, the LVEDP (PAH model; [1]) was 3.6 ± 2.3 mmHg and the LVESP (PAH model; [1]) was 83.2 ± 4.7 mmHg. The RVEDP (PAH model; [1]) was 2.6 ± 1.3 mmHg, the RVESP (PAH model; [1]) was 48.4 ± 9.6 mmHg and the “body weight, absolute change” value (PAH model; MCT + sildenafil (n = 5)) was 104.1 ± 26.4 g. For the same compound, the “body weight, relative change” value (PAH model; MCT + sildenafil (n = 5)) was 49.8 ± 10.5% and the “findings of D-shaped left ventricle (echocardiography)” value (PAH model; number of animals with finding) was “three mice”.
For “LN421: laminin subtype α4β2γ1, purchased from Biolamina [reference compound]”, the “level of KRS detection in the plasma membrane fractions” value (KRS) was “increased” and the “migration of monocytes/macrophages among laminin subtypes” value (RAW 264.7 cells; LN111, LN211, LN221, LN411, LN421, LN511, LN521 compared) was “specifically reacted”.
